# Test results as given in patent US7388016B2, “Dibenzonaphthyridine derivatives and methods of use thereof” (Wyeth, priority 2005, dated 2008).
# Biological target: T1, PDK-1 (Homo sapiens, UniProt O15530)
# T1 sequence (O15530 1-556): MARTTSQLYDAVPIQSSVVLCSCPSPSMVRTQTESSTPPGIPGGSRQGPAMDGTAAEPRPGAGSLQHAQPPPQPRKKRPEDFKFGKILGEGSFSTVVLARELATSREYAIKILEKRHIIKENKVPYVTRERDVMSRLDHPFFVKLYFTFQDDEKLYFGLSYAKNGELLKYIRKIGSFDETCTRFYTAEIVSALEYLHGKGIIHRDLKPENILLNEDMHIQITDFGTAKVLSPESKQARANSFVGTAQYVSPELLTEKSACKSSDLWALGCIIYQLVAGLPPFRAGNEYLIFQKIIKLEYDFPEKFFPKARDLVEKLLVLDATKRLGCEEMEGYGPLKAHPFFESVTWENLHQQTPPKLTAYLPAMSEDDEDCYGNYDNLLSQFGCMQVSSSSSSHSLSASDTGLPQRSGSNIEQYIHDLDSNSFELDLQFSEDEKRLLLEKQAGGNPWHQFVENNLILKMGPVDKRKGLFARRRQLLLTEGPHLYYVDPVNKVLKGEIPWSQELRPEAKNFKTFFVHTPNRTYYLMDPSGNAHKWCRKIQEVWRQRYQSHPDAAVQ
# Assay: In vitro PDK-1 inhibition ELISA assay (phosphorylation of SGK1 on Threonine 256)
# Format: biochemical
# Settings: PDK-1 phosphorylates 6xHIS tagged SGK1, 17 minutes reaction, chemiluminescent detection
# Method: The ability of illustrative Dibenzonaphthyridine Derivatives to inhibit PDK-1 in vitro can be determined using the ELISA assay as decribed in Kobayashi et al., Biochem. J. 339:319-328 (1999) and Park et al., EMBO J. 18:3024-3033 (1999).
# In this in vitro assay, PDK-1 kinase phosphorylates SGK1 on Threonine 256. After 17 minutes, the reaction is quenched via the addition of urea. The 6×HIS tagged SGK1 is then bound to 96 well Ni-NTA HisSorb plates and the phosphorylated SGK1 is detected using rabbit derived anti-phospho SGK antibody as the primary antibody and HRP coupled anti-rabbit antibody as the secondary antibody. HRP is then detected using a Chemiluminescent Substrate.
row,SMILES,IC50 [nM]
1,"COc1cc2c(cc1OCCN(C)CCN(C)C)ncc1c(N)nc3c(C)c(N)ccc3c12 [Ib-30, 10-{2-[[2-(dimethylamino)ethyl](methyl)amino]ethoxy}-11-methoxy-4-methyldibenzo[c,f]-2,7-naphthyridine-3,6-diamine]",281
2,"COc1cc2c(cc1OCCC1CC1)ncc1c(N)nc3c(C)c(N)ccc3c12 [Ib-46, 10-(2-cyclopropylethoxy)-11-methoxy-4-methyldibenzo[c,f]-2,7-naphthyridine-3,6-diamine]",212
3,"COc1cc2c(cc1OC[C@@H]1CCCN1Cc1ccccc1)ncc1c(N)nc3c(C)c(N)ccc3c12 [Ib-43, 10-{[(2S)-1-benzylpyrrolidin-2-yl]methoxy}-11-methoxy-4-methyldibenzo[c,f]-2,7-naphthyridine-3,6-diamine]",2980
4,"COc1cc2c(cc1OCCCN1CCOCC1)ncc1c(N)nc3c(C)c(N)ccc3c12 [Ib-11, 11-methoxy-4-methyl-10-(3-morpholin-4-ylpropoxy)dibenzo[c,f]-2,7-naphthyridine-3,6-diamine]",121
5,"COc1cc2c(cc1OCCCN1CCCCC1)ncc1c(N)nc3c(C)c(N)ccc3c12 [Ib-29, 11-methoxy-4-methyl-10-(3-piperidin-1-ylpropoxy)dibenzo[c,f]-2,7-naphthyridine-3,6-diamine]",243
6,"COc1cc2c(cc1OCCC(C)(C)C)ncc1c(N)nc3c(C)c(N)ccc3c12 [Ib-41, 10-(3,3-dimethylbutoxy)-11-methoxy-4-methyldibenzo[c,f]-2,7-naphthyridine-3,6-diamine]",6440
7,"COc1cc2ncc3c(OC)nc4c(C)c(OC)ccc4c3c2cc1OC [Compound I-1, 2,3,7,10-tetramethoxy-9-methyldibenzo[c,f]-2,7-naphthyridine]",23800
8,"COc1cc2c(cc1OCCCN(C)C)ncc1c(N)nc3c(C)c(N)ccc3c12 [Ib-21, 10-[3-(dimethylamino)propoxy]-11-methoxy-4-methyldibenzo[c,f]-2,7-naphthyridine-3,6-diamine]",196
9,"COc1cc2ncc3c(N)nc4c(C)c(N)ccc4c3c2cc1OC [Ib-2, 10,11-dimethoxy-4-methyldibenzo[c,f]-2,7-naphthyridine-3,6-diamine]",93
10,"COc1cc2c(cc1OCCCOCc1ccccc1)ncc1c(N)nc3c(C)c(N)ccc3c12 [Ib-42, 10-[3-(benzyloxy)propoxy]-11-methoxy-4-methyldibenzo[c,f]-2,7-naphthyridine-3,6-diamine]",2440
11,"COc1cc2c(cc1OCCc1ccccn1)ncc1c(N)nc3c(C)c(N)ccc3c12 [Ib-24, 11-methoxy-4-methyl-10-(2-pyridin-2-ylethoxy)dibenzo[c,f]-2,7-naphthyridine-3,6-diamine]",2860
12,"COc1cc2c(cc1NCCN(C)C)ncc1c(N)nc3c(C)c(N)ccc3c12 [Ib-14, N^10-[2-(dimethylamino)ethyl]-11-methoxy-4-methyldibenzo[c,f]-2,7-naphthyridine-3,6,10-triamine]",2410
13,"COc1cc2ncc3c(N)nc4ccccc4c3c2cc1OC [Ib-1, 10,11-dimethoxydibenzo[c,f]-2,7-naphthyridin-6-amine]",2400
14,"COc1cc2c(cc1OCCN1CCCC1)ncc1c(N)nc3c(C)c(N)ccc3c12 [Ib-22, 11-methoxy-4-methyl-10-(2-pyrrolidin-1-ylethoxy)dibenzo[c,f]-2,7-naphthyridine-3,6-diamine]",261
15,"CCOCCOc1cc2ncc3c(N)nc4c(C)c(N)ccc4c3c2cc1OC [Ib-47, 10-(2-ethoxyethoxy)-11-methoxy-4-methyldibenzo[c,f]-2,7-naphthyridine-3,6-diamine]",172
16,"COc1cc2ncc3c(N)nc4c(C)c(OC)ccc4c3c2cc1OC [Ib-51, 3,10,11-trimethoxy-4-methyldibenzo[c,f]-2,7-naphthyridin-6-amine]",48.7
17,"COc1cc2c(cc1OCCC1CCCC1)ncc1c(N)nc3c(C)c(N)ccc3c12 [Ib-45, 10-(2-cyclopentylethoxy)-11-methoxy-4-methyldibenzo[c,f]-2,7-naphthyridine-3,6-diamine]",4530
18,"COc1cc2ncc3c(N)nc4c(C)c(Cl)ccc4c3c2cc1OC [Ib-49, 3-chloro-10,11-dimethoxy-4-methyldibenzo[c,f]-2,7-naphthyridin-6-amine]",2220
19,"COc1cc2c(cc1NCCCN(C)C)ncc1c(N)nc3c(C)c(N)ccc3c12 [Ib-15, N^10-[3-(dimethylamino)propyl]-11-methoxy-4-methyldibenzo[c,f]-2,7-naphthyridine-3,6,10-triamine]",972
20,"COc1cc2c(cc1OCCN1CCCCC1)ncc1c(N)nc3c(C)c(N)ccc3c12 [Ib-26, 11-methoxy-4-methyl-10-(2-piperidin-1-ylethoxy)dibenzo[c,f]-2,7-naphthyridine-3,6-diamine]",324
21,"COc1cc2ncc3cnc4c(C)c(N)ccc4c3c2cc1OC [Compound I-3, 10,11-dimethoxy-4-methyldibenzo[c,f]-2,7-naphthyridin-3-amine]",2500
22,"COc1cc2c(cc1OCCc1c[nH]c3ccccc13)ncc1c(N)nc3c(C)c(N)ccc3c12 [Ib-31, 10-[2-(1H-indol-3-yl)ethoxy]-11-methoxy-4-methyldibenzo[c,f]-2,7-naphthyridine-3,6-diamine]",539
23,"COc1cc2ncc3c(N)nc4c(C)c(N5C(=O)c6ccccc6C5=O)ccc4c3c2cc1OC [Ib-36, 2-(6-amino-10,11-dimethoxy-4-methyldibenzo[c,f]-2,7-naphthyridin-3-yl)-1H-isoindole-1,3(2H)-dione]",1730
